Like-named read-outs stand apart in the source and are kept apart here.
Experiments:
[1] = test system: Salmonella TA100 (base pair substitutions); assay: Ames mutagenicity testing, TA100; assay type: cell-based
Description: (§1) The test has been performed in duplicate as separate experiments (Table 9). Two different Salmonella strains were tested; TA98 (frameshift mutations) and TA100 (base pair substitutions, primarily at one of the GC pairs). Values above 15 represent genotoxicity.

[2] = test system: T. b. brucei GVR35; assay: Stage II HAT mice model, live imaging; assay type: in vivo
[3] = Maximum tolerated dose and dose range finding, 7 days oral gavage; settings: for average weight loss at the end of the experiment: 7 days
From the text: The primary objective of the dose range finding study is to establish the maximum tolerated dose (MTD) as determined by parameters such as clinical signs and reductions in body weight and food consumption, and to provide the data for appropriate dose selection in subsequent regulatory toxicology studies.

[4] = test system: L. donovani 1SR intracellular amastigotes; assay: Anti-leishmanial activity, L. donovani intracellular amastigotes; assay type: cell-based; settings: Leishmania donovani; read-out: L. donovani 1SR intracellular amastigotes IC50 ± SEM
From the text: (§2) The in vitro antiparasitic activity of compound 5-cyclopentadecylpentyl (2-(trimethylammonio)ethyl) phosphate (19) against L. infantum (2 species), L. amazonensis, L. donovani and L. major is presented in Table 3, as well as the toxicity against the human monocytic cell Line THP1 and PMA-differentiated THP-1 cells.

[5] = target: CYP2D6 (Homo sapiens, UniProt P10635); assay: Early toxicity: CYP2D6 inhibition; assay type: in vitro ADME; settings: human, mean ± SD, Table 4a
[6] = target: HDAC4 (Homo sapiens, UniProt P56524); assay: HDAC4 activity inhibition; assay type: biochemical; settings: 100 μM
[7] = target: HDAC6 (Homo sapiens, UniProt Q9UBN7); assay: HDAC6 activity inhibition; assay type: biochemical; settings: 100 μM
[8] = test system: W1-38; assay: Early toxicity: W1-38 cell growth; assay type: cell-based; settings: 10 μM
[9] = test system: Leishmania infantum; assay: Efficacy in mice infected with Leishmania infantum, 21-day treatment, limiting dilution assay; assay type: in vivo, BALB/c mice
Description: The rationale for the choice of four doses was to enable dose dependent information in activity and toxicity. The wait period of 15 days after treatment end enabled the follow up of reappearance of infection and also the determination of the time dependent compound elimination. […] Three days after the last treatment the mice were euthanized and parasite burden (log number of parasites/mg of organ) was evaluated by limiting dilution assay, essentially as described in Tavares. J. et al (Methods Mol Biol, 2019; 1971:289-301), in the spleen (FIG. 2B) and in the liver (FIG. 2C). Data represent the mean±SD, *p<0.05, **p<0.01 (One way ANOVA with Dunnett's test) in comparison with the untreated group.

[10] = target: HDAC9 (Homo sapiens, UniProt Q9UKV0); assay: HDAC9 activity inhibition; assay type: biochemical; settings: 100 μM
[11] = test system: Leishmania infantum; assay: Efficacy in mice infected with Leishmania infantum, 10-day treatment; assay type: in vivo, BALB/c mice; settings: 10 consecutive days
Description: (A) Experimental approach; (B) and (C) are graphic presentations of parasite burden in the spleen and the liver, respectively, evaluated by limiting dilution assay.
The treatments were reduced to 10 consecutive days at doses of 2.5, 5, 10 or 20 mg/Kg/day (FIG. 3).

[12] = test system: T. b. brucei L427 WT Blood-Stream Form; assay: Anti-parasitic activity against T. b. brucei blood-stream form (resazurin 72 h assay); assay type: cell-based
[13] = test system: Salmonella TA98 (frameshift mutations); assay type: cell-based
Description: as §1

[14] = target: CYP2C9 (Homo sapiens, UniProt P11712); assay: Early toxicity: CYP2C9 inhibition; assay type: in vitro ADME; settings: human, mean ± SD, Table 4a
[15] = test system: L. amazonensis intracellular amastigotes; assay: Anti-leishmanial activity, L. amazonensis intracellular amastigotes; assay type: cell-based; settings: Leishmania amazonensis
From the text: as §2

[16] = target: HDAC8 (Homo sapiens, UniProt Q9BY41); assay: HDAC8 activity inhibition; assay type: biochemical; settings: 100 μM
[17] = test system: mitochondria; assay: Early toxicity: mitochondrial toxicity; assay type: cell-based; settings: 10 μM
[18] = Snapshot pharmacokinetics in plasma after oral gavage; assay type: in vivo, mice; settings: for AUC(0-inf) / Cmax / half-life / Tmax: mouse, plasma; for Tmax: read-out: tmax
Description: Pharmacology of 5-cyclopentadecylpentyl (2-(trimethylammonio)ethyl) phosphate (19) in mice.
Blood samples were collected from the tail vein at 0, 0.5, 0.75, 1, 3, 24 and 72 hours into heparinized tubes. Moreover, biodistribution of the molecule, 72h after administration, was determined in several organs of the treated mice, namely brain, liver, spleen, kidney, heart and bone marrow. […] J Chromatogr B, 865: 55-62) by liquid chromatography mass spectrometry (LC-MS/MS).

CYP2D6, sequence (P10635 whole entry): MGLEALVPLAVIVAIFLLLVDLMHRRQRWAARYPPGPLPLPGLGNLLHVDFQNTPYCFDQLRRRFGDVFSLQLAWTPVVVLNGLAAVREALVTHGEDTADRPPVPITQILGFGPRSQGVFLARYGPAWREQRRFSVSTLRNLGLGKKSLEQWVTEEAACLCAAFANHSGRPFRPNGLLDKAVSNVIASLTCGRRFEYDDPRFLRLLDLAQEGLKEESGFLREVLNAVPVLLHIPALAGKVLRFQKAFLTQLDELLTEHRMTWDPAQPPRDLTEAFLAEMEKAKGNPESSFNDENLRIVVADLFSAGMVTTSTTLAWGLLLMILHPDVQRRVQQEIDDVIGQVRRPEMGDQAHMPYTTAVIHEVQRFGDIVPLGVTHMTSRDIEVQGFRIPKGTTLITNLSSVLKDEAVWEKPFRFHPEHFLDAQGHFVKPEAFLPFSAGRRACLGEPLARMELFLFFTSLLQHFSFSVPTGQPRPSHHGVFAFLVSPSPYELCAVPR
CYP2C9, sequence (P11712 whole entry): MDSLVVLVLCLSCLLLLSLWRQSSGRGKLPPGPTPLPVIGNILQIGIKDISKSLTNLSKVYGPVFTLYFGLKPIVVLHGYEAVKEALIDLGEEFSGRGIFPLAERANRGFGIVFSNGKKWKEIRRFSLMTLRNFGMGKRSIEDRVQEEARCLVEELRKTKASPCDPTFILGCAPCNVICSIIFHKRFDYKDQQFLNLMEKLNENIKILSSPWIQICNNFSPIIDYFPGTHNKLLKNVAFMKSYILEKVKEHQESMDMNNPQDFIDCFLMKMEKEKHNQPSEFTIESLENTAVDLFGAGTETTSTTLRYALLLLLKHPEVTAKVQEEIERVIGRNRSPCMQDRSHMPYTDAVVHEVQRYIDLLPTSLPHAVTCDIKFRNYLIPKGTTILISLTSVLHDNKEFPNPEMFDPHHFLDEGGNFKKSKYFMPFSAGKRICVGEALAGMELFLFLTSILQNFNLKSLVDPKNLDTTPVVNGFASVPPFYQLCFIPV
HDAC8, sequence (Q9BY41 whole entry, species assumed): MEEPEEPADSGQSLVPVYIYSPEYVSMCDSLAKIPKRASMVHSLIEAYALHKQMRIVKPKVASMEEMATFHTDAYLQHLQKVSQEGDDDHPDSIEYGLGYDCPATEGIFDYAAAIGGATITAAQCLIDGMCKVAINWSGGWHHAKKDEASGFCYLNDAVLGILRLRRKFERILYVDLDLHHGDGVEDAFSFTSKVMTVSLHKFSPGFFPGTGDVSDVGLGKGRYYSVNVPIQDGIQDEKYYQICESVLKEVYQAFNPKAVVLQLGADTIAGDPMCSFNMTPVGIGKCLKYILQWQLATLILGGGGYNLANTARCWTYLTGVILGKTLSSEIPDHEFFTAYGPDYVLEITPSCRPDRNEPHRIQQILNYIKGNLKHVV
HDAC4, sequence (P56524 whole entry, species assumed): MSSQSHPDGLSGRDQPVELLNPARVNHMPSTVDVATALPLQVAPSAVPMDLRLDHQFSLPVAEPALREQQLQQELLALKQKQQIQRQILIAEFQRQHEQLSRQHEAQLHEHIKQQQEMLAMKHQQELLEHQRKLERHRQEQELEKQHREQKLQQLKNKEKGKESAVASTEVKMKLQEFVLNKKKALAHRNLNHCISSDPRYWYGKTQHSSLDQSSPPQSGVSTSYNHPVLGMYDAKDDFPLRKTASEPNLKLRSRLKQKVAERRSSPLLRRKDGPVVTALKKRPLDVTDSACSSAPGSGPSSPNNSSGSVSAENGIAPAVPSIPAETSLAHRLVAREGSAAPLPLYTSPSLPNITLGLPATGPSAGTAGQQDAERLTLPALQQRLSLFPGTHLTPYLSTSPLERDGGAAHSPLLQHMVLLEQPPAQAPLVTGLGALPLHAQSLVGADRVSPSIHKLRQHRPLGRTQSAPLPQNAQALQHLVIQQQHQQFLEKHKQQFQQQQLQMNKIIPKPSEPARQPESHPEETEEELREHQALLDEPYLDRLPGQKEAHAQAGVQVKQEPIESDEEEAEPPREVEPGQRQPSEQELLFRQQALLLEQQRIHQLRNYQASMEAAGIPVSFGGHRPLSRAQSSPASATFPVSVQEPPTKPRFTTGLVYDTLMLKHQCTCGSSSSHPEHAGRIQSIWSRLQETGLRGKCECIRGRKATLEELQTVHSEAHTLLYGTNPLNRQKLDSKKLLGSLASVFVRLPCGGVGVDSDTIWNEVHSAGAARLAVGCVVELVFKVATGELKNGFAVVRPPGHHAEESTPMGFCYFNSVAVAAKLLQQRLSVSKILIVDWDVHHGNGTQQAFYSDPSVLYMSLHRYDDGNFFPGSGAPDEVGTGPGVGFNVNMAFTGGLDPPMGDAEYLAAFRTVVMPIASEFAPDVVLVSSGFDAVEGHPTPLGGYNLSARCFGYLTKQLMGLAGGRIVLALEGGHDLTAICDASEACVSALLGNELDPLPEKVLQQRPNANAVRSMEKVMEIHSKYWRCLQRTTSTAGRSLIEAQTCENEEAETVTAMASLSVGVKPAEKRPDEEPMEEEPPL
HDAC6, sequence (Q9UBN7 whole entry, species assumed): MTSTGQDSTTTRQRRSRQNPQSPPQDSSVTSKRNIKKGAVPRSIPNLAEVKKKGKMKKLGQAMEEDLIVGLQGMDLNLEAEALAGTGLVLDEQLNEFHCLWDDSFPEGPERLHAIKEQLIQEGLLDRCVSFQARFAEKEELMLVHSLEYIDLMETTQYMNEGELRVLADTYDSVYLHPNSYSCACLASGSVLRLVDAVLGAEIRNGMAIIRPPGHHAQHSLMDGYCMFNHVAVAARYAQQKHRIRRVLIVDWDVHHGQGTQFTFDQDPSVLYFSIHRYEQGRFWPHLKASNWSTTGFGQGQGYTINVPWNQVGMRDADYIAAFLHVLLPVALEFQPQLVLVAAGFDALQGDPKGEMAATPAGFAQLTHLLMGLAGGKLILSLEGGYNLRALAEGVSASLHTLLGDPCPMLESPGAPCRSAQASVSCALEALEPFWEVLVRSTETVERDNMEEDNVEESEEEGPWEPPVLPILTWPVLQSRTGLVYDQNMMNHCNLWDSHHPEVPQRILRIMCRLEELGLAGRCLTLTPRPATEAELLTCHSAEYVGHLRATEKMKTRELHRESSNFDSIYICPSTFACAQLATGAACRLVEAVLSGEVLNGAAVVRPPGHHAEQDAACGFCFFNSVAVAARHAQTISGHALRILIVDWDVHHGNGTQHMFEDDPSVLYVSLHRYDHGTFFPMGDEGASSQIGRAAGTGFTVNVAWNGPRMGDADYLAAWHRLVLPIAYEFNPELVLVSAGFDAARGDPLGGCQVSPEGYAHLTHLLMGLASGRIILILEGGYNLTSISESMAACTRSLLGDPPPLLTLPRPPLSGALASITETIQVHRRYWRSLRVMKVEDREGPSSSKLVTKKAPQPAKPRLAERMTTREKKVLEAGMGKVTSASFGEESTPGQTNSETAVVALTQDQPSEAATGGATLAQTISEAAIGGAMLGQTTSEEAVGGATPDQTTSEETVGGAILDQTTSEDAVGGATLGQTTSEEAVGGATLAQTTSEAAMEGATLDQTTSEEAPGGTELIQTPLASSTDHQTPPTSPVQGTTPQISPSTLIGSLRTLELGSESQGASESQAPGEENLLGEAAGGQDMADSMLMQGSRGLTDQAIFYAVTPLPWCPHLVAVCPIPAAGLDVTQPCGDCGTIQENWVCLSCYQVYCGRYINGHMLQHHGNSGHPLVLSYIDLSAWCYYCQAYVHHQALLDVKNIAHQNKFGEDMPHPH
HDAC9, sequence (Q9UKV0 whole entry, species assumed): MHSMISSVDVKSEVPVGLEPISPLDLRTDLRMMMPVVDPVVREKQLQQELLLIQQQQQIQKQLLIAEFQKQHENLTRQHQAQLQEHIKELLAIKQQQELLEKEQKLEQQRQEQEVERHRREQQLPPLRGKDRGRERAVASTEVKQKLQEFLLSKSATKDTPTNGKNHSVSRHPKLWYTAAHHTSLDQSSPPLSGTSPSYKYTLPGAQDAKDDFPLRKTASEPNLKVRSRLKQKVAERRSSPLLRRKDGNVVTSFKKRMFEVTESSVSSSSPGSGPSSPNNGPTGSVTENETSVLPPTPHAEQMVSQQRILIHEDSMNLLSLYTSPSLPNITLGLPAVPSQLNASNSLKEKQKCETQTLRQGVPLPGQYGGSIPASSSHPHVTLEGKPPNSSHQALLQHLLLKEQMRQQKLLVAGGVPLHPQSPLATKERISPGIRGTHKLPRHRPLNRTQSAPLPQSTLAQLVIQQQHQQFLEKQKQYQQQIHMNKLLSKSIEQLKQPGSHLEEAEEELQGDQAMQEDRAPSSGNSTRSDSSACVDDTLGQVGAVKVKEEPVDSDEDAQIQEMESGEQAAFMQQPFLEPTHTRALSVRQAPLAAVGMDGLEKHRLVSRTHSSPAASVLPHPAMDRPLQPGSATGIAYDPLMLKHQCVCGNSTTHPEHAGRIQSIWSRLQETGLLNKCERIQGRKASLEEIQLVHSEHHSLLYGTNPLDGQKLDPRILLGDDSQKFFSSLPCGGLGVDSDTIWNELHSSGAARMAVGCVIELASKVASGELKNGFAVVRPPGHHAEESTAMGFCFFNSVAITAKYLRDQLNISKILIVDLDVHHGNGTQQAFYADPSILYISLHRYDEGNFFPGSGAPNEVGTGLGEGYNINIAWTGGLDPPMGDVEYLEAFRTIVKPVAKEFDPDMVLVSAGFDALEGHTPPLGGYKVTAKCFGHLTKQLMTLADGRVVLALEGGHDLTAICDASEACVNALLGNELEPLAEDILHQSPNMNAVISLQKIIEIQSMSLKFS

## C[N+](C)(C)CCOP(=O)([O-])OCCCCCC1CCCCCCCCCCCCCC1 [Compound 19, 5-cyclopentadecylpentyl (2-(trimethylammonio)ethyl) phosphate]
[1]; 3.125 μM
  Ames mutagenicity TA100 (values above 15 represent genotoxicity): 7.5 ± 0.71
[1]; 6.25 μM
  Ames mutagenicity TA100 (values above 15 represent genotoxicity): 9.0 ± 0
[1]; 12.5 μM
  Ames mutagenicity TA100 (values above 15 represent genotoxicity): 14.0 ± 1.41
[1]; 25 μM
  Ames mutagenicity TA100 (values above 15 represent genotoxicity): 7.0 ± 2.83
[1]; 50 μM
  Ames mutagenicity TA100 (values above 15 represent genotoxicity): 10.0 ± 0
[1]; 100 μM
  Ames mutagenicity TA100 (values above 15 represent genotoxicity): 8.5 ± 4.95
[1]; up to 100 μM
  mutagenicity, TA100: does not exhibit mutagenicity
[2]; 50 mg/kg daily for 13 days, compared to beginning of treatment (day 21)
  average reduction of signal (average radiance) in the brain region: 99.96%
[2]; 50 mg/kg/day PO, 13 days
  reduction of infection: > 99%
[2]; after 4 treatments (day 25), 50 mg/kg daily
  signal in the region of the brain lost: 99.95%
[2]; compound 19 50 mg/kg/day PO
  overall and brain infection: able to significantly reduce the overall infection and also in the brain
[3]; 50 mg/kg daily oral gavage
  average weight loss at the end of the experiment: 7±8%
[3]; 100 mg/kg daily oral gavage
  day from which weight loss was significant: 5 days
  average weight loss at the end of the experiment: 11±4%
[3]; BALB/c, mouse, in vivo, oral
  MTD at 7 days: 100 mg/kg
[4]
  IC50: 24 ± 3.8 µM
[5]
  inhibition at 10 µM: -50.7 ± 3.45%
[6]
  inhibition of the activity of HDAC4: does not inhibit
[7]
  inhibition of the activity of HDAC6: does not inhibit
[8]
  % cell growth W1-38: 95.66 ± 19.68%
[8]; Table 5
  Avg % Cell growth W1-38: 95.66 ± 19.68 (10 μM) %
[9]; compound 19 2.5 mg/kg every other day for 21 days
  average reduction of parasite burden, spleen: 98%
[9]; compound 19 every other day for 21 days, 20, 10, 5, 2.5 mg/kg, except 2.5 mg/kg in the spleen
  parasite burden, spleen and liver: maintained parasite burden under the detection limit
[10]
  inhibition of the activity of HDAC9: does not inhibit
[11]; 2.5 mg/kg
  reduction of parasite burden, spleen: 91±6%
[11]; 5 mg/kg
  reduction of parasite burden, spleen: 99±1%
[11]; 20 mg/kg and 10 mg/kg
  parasite burden in the spleen: able to maintain parasite burden below the detection limit
[11]; all treatments (20, 10, 5, 2.5 mg/kg)
  parasite load in the liver: maintained the parasite load under the detection limit
[12]; Table 2
  activity against T. b. brucei blood-stream form: unexpectedly high activity in the low micromolar range
[12]; Trypanosoma brucei, 72 h, read-out: Dose Response Curves IC50 ± SD (μM)
  IC50: 4.47 ± 0.2 µM
[12]; Trypanosoma brucei, read-out: Single Dose Assay 10 μM Mean Inhibitory Activity (%) ± SD
  inhibition at 10 µM: 99 ± 1%
[12]; toxicity / T. b. brucei IC50, Table 2
  Selectivity Index CC50/IC50 or NOAEL/IC50: >22
[13]; 3.125 μM
  Ames mutagenicity TA98 (values above 15 represent genotoxicity): 11.0 ± 8.48
[13]; 6.25 μM
  Ames mutagenicity TA98 (values above 15 represent genotoxicity): 13.0 ± 2.83
[13]; 12.5 μM
  Ames mutagenicity TA98 (values above 15 represent genotoxicity): 12.5 ± 4.95
[13]; 25 μM
  Ames mutagenicity TA98 (values above 15 represent genotoxicity): 6.5 ± 3.53
[13]; 50 μM
  Ames mutagenicity TA98 (values above 15 represent genotoxicity): 11 ± 2.82
[13]; 100 μM
  Ames mutagenicity TA98 (values above 15 represent genotoxicity): 11.0 ± 1.41
[13]; up to 100 μM
  mutagenicity, TA98: does not exhibit mutagenicity
[14]
  inhibition at 10 µM: -17.5 ± 2.31%
[15]
  IC50: 5.4 µM
[16]
  effect on HDACr: not considered significant
[17]; 100% mitotoxic, 0% not mitotoxic
  % mitochondrial toxicity: −3.22 ± 5.44%
[17]; Table 5
  Ang % Toxicity Mitochondria: −3.22 ± 5.44 (10 μM) %
[18]; 20 mg/kg oral gavage
  Cmax in plasma relative to the EC50 for L. infantum in vitro: 10 fold
[18]; BALB/c (Compound 19), NMRI (miltefosine), healthy mice, 20 mg/kg oral gavage, Table 10, read-out: AUC (0-∞)
  AUC(0-inf): 967 ± 471 µg·h/mL
[18]; BALB/c (Compound 19), NMRI (miltefosine), healthy mice, 20 mg/kg oral gavage, Table 10, read-out: AUC (0-∞) (μM h/mL)
  AUC(0-inf): 2090 µM·h
[18]; BALB/c (Compound 19), NMRI (miltefosine), healthy mice, 20 mg/kg oral gavage, Table 10, read-out: Cmax
  Cmax: 33.4 µM
[18]; BALB/c (Compound 19), NMRI (miltefosine), healthy mice, 20 mg/kg oral gavage, Table 10, read-out: Cmax (μg/mL)
  Cmax: 15.4 ± 9.3 µg/mL
[18]; BALB/c (Compound 19), NMRI (miltefosine), healthy mice, 20 mg/kg oral gavage, Table 10, read-out: t1/2 (converted)
  half-life: 17.4 ± 4.2 h
[18]; BALB/c (Compound 19), NMRI (miltefosine), healthy mice, 20 mg/kg oral gavage, Table 10
  Tmax: 24 h
[18]; healthy BALB/c mice, 20 mg/kg gavage, Table 13
  Ke (h − 1): 0.049 h − 1
[18]; healthy mice, 20 mg/kg oral gavage, Table 10
  Ke: 0.049 h⁻¹
[18]; po, healthy BALB/c mice, 20 mg/kg gavage, Table 13, read-out: AUC (0-∞)
  AUC(0-inf): 967 ± 471 µg·h/mL
[18]; po, healthy BALB/c mice, 20 mg/kg gavage, Table 13, read-out: AUC (0-∞) (μM h/mL)
  AUC(0-inf): 2090 µM·h
[18]; po, healthy BALB/c mice, 20 mg/kg gavage, Table 13, read-out: Cmax
  Cmax: 33.4 µM
[18]; po, healthy BALB/c mice, 20 mg/kg gavage, Table 13, read-out: Cmax (μg/mL)
  Cmax: 15.4 ± 9.3 µg/mL
[18]; po, healthy BALB/c mice, 20 mg/kg gavage, Table 13
  Tmax: 24 h
[18]; po, healthy BALB/c mice, 20 mg/kg gavage, Table 13, read-out: t½ (converted)
  half-life: 17.4 ± 4.2 h

— patent publication US20230365602A1, “COMPOUND FOR USE IN THE TREATMENT OF PROTOZOAL DISEASES AND PROCESS FOR PRODUCTION OF SAID COMPOUND” (QUADREL S.R.L., priority 2020, published 2023)
